Laboratory results: patent publication US20170292066A1, “Synthetic Acid Compositions Alternatives to Conventional Acids in the Oil and Gas Industry” (Fluid Energy Group Ltd., priority 2014, published 2017)

Test: Biodegradability

With `Cl.NC(N)=O` [urea hydrochloride, Urea Hydrochloride] the Biodegradability was “maintain the same biodegradability function”.
